The experiment has as its target T1, lys158-HFMO3-MBP (Homo sapiens, UniProt P31513, E158K).
T1 sequence (P31513 2-532 E158K): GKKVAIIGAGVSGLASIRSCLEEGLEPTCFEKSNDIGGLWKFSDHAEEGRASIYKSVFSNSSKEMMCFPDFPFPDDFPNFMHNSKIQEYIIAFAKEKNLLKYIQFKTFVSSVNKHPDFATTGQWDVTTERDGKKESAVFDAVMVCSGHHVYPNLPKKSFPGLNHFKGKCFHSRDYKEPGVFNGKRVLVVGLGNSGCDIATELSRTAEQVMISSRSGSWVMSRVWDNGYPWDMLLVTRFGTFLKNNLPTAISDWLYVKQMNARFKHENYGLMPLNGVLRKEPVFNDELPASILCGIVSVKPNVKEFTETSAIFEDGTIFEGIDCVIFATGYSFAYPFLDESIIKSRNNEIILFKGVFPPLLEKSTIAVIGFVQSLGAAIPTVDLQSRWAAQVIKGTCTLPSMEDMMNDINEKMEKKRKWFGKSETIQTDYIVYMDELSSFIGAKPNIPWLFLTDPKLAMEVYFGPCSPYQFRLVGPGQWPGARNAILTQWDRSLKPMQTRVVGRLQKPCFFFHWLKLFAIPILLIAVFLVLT
As to the kind of experiment: Substrate oxygenation by lys158-HFMO3-MBP fusion protein, HPLC. To be noted: lys158-HFMO3-MBP, N-oxygenation. How it is done:
For HFMO3-MBP assay, all HFMO3-MBP incubations were done as follows: Into a test tube was added DETAPAC (1.2 mM, final concentration for a 250 μl reaction) followed by the addition of 60 μl NADPH generating system (0.4 mM NADP, 0.4 mM glucose-6-phosphate, and 20 μl of a 50 units mI^−1 glucose-6-phosphate dehydrogenase). The tube was chilled on ice and buffer and enzyme were added as described below for individual experiments to give a volume of 240 μl. The incubation was initiated by the addition of 5-DTP (10 μl of 5 mM) and placed in a shaking water bath at 37° C. for 10 min (unless specified otherwise). The incubation was stopped by the addition of 1.0 ml of ice-cold CH2Cl2. Following the addition of sodium carbonate (approx. 20 mg), the culture tube was vortexed, centrifuged (2000×g, 10 min), and the organic layer was removed and transferred to a 1.5 ml microfuge tube. The organic solvent was evaporated under a stream of Ar(g) to dryness and the residue was taken up in MeOH (300 μl) for determination HPLC analysis.
Data was analyzed with a Hitachi D-2500 integrator.
MTS-oxygenation assays were carried out under the same buffer, temperature, time and volume conditions, as for the N-oxygenation assays. The reactions were initiated upon addition of 10 μl of a 5 mM solution of MTS. The reaction was quenched with the addition of 700 μl of 80% CH3CN:20% hexane then 20 mg NaCl(s) and vortexed vigorously for 10 sec. The quenched reactions were then centrifuged briefly to separate the phases. The organic layer, containing product and substrate, was removed and used directly for HPLC analysis.
All other instruments used were the same as above for the N-oxygenation reactions. Conditions for elution were 50% CH3CN/H2O (v:v) with a flow rate gradient as follows: 1.5 ml min^−1 from 0 to 4 min., 1.5-2.5 ml min^−1 from 4 to 5 min, 2.5 ml min^−1 from 5 to 15 min.
Trimethylamine is commonly ingested in foodstuffs or it is available in the diet of humans from choline and other sources. Trimethylamine (TMA) is exclusively eliminated in humans by metabolism to trimethylamine N-oxide (TMANO). […] Thus, urinary TMANO formation provides a simple, reliable and direct assay of FMO3 activity in adult humans. Analysis of TMA to TMANO ratios provides a direct means of phenotyping adult humans for FMO3 activity. Phenotyping FMO3 activity in humans would provide a simple means of evaluating the relationship between the presence of FMO3 and various disease conditions. […]

Structures are written as SMILES.

A word on the Km: it is the substrate concentration at which the rate is half of its maximum. `CN(C)CCCCCN1c2ccccc2Sc2ccc(C(F)(F)F)cc21` [Compound 5]: the Km worked out at 78 µM. Also, the Vmax (Lineweaver-Burke analysis) is listed as 1.88 nmole/min/nmol of flavin.
